Test results reported in US8703796B2, “3H-imidazo [4, 5-B] pyridine-6-carboxamides as anti-inflammatory agents” (Boehringer Ingelheim International GmbH, priority 2008, dated 2014).

Target: T1, recombinant human mPGES-1 (Homo sapiens, UniProt O14684)
T1 construct: made in house; host or cells: Rosetta E. coli (microsomal/membrane fraction)
T1 sequence (O14684 1-152): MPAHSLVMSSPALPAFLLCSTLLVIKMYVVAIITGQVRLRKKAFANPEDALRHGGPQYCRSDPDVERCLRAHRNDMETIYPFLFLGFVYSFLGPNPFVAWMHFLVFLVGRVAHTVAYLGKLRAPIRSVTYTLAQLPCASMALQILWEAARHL
Experiment: mPGES-1 inhibition, HTRF detection of PGE2
Type: biochemical
Procedure, shortened: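 First, inhibitor is incubated with microsomal enzyme from Rosetta E. coli in KPi pH 7.4 containing 2.5 mM GSH for 25 minutes at room temperature. Next, PGH2 is added and stopped after one minute with FeCl2 stop solution. Finally, diluted samples undergo HTRF PGE2 quantification.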

inhibition at 10 µM | inhibition at 1 µM | SMILES
98% | – | Cc1ccnc(Br)c1Nc1nc2cc(C(=O)N[C@H]3CC[C@H](C(F)(F)F)CC3)c(OCC(F)F)nc2[nH]1 [Example 795, 2-(2-Bromo-4-methyl-pyridin-3-ylamino)-5-(2,2-difluoro-ethoxy)-N-(trans-4-trifluoromethyl-cyclohexyl)-3H-imidazo[4,5-b]pyridine-6-carboxamide]
96% | – | COCCOc1nc2[nH]c(Nc3c(Cl)cncc3Cl)nc2cc1C(=O)Nc1ccc(Br)cc1 [Example 801, 2-(3,5-Dichloro-pyridin-4-ylamino)-5-(2-methoxy-ethoxy)-N-(4-bromo-phenyl)-3H-imidazo[4,5-b]pyridine-6-carboxamide]
100% | – | CC1(C)CCC(NC(=O)c2cnc3[nH]c(Nc4c(F)cccc4Cl)nc3c2)CC1 [Example 466, 2-(2-Chloro-6-fluorophenylamino)-N-(4,4-dimethylcyclohexyl)-3H-imidazo[4,5-b]pyridine-6-carboxamide]
99% | – | Cn1c(Nc2c(Cl)cncc2Cl)nc2cc(C(=O)NCc3ncccc3C(F)(F)F)c(OCC(F)F)nc21 [Example 841, 2-(3,5-Dichloro-pyridin-4-ylamino)-5-(2,2-difluoro-ethoxy)-N-((3-trifluoromethyl-pyridin-2-yl)-methyl)-3-methyl-3H-imidazo[4,5-b]pyridine-6-carboxamide]
97% | – | Cn1c(Nc2c(Cl)cccc2Cl)nc2cc(C(=O)Nc3ccc(Br)cc3)cnc21 [Example 463, N-(4-Bromophenyl)-2-(2,6-dichlorophenylamino)-3-methyl-3H-imidazo[4,5-b]pyridine-6-carboxamide]
87% | – | O=C(N[C@H]1CC[C@H](C(F)(F)F)CC1)c1cc2nc(Nc3cccnc3C(F)(F)F)[nH]c2nc1OCC(F)F [Example 798, 2-(2-Trifluoromethyl-pyridin-3-ylamino)-5-(2,2-difluoro-ethoxy)-N-(trans-4-trifluoromethyl-cyclohexyl)-3H-imidazo[4,5-b]pyridine-6-carboxamide]
– | 96% | Cn1c(Nc2c(Cl)cnc(Cl)c2Cl)nc2cc(C(=O)N[C@H]3CC[C@H](C(F)(F)F)CC3)c(OCC(F)F)nc21 [Example 779, 2-(2,3,5-Trichloro-pyridin-4-yl-amino)-5-(2,2-difluoro-ethoxy)-N-(trans-4-trifluoromethyl-cyclohexyl)-3-methyl-3H-imidazo[4,5-b]pyridine-6-carboxamide]
99% | – | Cn1c(Nc2c(Cl)cccc2Cl)nc2cc(C(=O)N[C@H]3CC[C@H](C(F)(F)F)CC3)cnc21 [Example 174, 2-(2,6-Dichloro-phenylamino)-3-methyl-3H-imidazo[4,5-b]pyridine-6-carboxylic acid (trans-4-trifluoromethyl-cyclohexyl)-amide]
– | 100% | Cn1c(Nc2c(F)cccc2Cl)nc2cc(C(=O)Nc3ccc(Br)cc3)c(OCC(F)F)nc21 [Example 773, N-(4-Bromo-phenyl)-2-(2-fluoro-6-chloro-phenylamino)-5-(2,2-difluoroethoxy)-3-methyl-3H-imidazo[4,5-b]pyridine-6-carboxamide]
98% | – | CCCCC[C@H](C)NC(=O)c1cnc2c(c1)nc(Nc1c(Cl)cccc1Cl)n2C [Example 497, (S)-2-(2,6-Dichlorophenylamino)-N-(hept-2-yl)-3-methyl-3H-imidazo[4,5-b]pyridine-6-carboxamide]
97% | – | Cn1c(Nc2c(Cl)cc(F)cc2Cl)nc2cc(C(=O)Nc3ccc(Br)cc3)c(OCC(F)(F)F)nc21 [Example 816, 2-(2,6-Dichloro-4-fluoro-phenylamino)-5-(2,2,2-trifluoro-ethoxy)-N-(4-bromo-phenyl)-3-methyl-3H-imidazo[4,5-b]pyridine-6-carboxamide]
99% | – | CCOc1nc2[nH]c(Nc3c(Cl)cncc3Cl)nc2cc1C(=O)Nc1cc(C(F)(F)F)ccn1 [Example 845, 2-(3,5-Dichloro-pyridin-4-ylamino)-5-ethoxy-N-(4-trifluoromethyl-pyridin-2-yl)-3H-imidazo[4,5-b]pyridine-6-carboxamide]
